Measured values taken from US9938256B2, “Annelated benzamides” (Boehringer Ingelheim International GmbH, priority 2015, dated 2018).

Target: T1, ENaC (Epithelial Sodium Channel) (Mus musculus, UniProt Q61180+Q9WU38+Q9WU39)
T1 sequence (Q61180 1-699): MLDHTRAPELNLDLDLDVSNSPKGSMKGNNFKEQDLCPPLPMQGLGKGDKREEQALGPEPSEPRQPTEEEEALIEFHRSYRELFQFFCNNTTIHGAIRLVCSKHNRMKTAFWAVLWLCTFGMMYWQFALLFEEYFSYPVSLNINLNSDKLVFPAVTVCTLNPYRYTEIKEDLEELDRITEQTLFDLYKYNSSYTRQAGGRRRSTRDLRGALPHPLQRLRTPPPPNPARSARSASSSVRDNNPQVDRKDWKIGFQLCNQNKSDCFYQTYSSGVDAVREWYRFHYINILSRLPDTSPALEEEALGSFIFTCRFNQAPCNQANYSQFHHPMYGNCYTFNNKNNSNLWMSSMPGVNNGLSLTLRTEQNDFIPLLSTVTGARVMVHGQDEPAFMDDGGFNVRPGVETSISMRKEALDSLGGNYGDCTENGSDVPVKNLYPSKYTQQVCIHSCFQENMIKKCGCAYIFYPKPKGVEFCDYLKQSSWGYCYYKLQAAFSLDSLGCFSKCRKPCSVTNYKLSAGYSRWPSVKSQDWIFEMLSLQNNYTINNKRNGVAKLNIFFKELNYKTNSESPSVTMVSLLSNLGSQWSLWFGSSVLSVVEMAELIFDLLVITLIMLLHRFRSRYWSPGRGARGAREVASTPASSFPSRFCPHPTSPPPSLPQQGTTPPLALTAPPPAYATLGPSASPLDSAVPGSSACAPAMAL
T1 sequence (Q9WU38 1-638): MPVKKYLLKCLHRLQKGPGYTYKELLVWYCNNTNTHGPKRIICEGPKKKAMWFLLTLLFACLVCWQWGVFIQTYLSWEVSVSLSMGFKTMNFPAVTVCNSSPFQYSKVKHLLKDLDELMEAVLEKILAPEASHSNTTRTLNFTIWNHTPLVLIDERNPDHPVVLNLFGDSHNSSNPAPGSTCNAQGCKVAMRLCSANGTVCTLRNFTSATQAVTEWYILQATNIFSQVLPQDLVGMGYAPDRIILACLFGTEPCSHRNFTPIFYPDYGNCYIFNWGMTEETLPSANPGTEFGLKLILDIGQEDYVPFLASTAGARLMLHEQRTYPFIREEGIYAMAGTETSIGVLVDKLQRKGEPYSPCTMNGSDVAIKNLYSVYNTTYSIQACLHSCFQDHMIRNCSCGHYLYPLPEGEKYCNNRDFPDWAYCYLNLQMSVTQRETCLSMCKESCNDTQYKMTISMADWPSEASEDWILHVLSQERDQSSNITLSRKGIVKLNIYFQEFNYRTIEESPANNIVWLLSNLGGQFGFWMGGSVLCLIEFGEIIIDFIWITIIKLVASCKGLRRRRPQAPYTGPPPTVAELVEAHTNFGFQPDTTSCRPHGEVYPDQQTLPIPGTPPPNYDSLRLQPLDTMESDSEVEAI
T1 sequence (Q9WU39 1-655): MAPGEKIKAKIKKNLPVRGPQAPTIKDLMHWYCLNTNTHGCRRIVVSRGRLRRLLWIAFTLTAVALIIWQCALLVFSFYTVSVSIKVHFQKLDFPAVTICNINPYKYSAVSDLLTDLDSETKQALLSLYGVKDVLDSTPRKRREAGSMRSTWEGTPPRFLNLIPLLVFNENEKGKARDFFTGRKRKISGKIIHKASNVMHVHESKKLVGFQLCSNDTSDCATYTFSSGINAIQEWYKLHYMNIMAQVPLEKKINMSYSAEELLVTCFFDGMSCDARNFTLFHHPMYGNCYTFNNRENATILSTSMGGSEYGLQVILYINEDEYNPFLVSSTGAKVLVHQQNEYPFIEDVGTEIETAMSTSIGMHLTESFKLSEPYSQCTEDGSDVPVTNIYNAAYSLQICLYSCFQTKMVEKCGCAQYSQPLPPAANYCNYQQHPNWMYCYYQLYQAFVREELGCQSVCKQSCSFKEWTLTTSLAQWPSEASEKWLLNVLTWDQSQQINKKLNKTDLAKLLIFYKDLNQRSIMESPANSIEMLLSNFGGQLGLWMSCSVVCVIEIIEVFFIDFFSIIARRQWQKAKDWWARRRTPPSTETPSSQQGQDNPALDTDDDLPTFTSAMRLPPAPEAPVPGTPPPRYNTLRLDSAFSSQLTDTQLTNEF
Assay: Ussing Chamber assay (amiloride sensitive short circuit current in M-1 cells)
Assay type: cell-based
Settings: Mouse kidney M-1 cells, apical administration, 37° C.
Protocol: The IC50 values of the example compounds given above were determined in the Ussing Chamber assay. Ussing Chamber: Mouse kidney M-1 cells were cultivated in DMEM containing 5% FCS and 5 μM dexamethasone for 10 to 12 days on polyester transwell filters. Filters were inserted into a teflon-coated well-plate which fit into the ussing chamber system. Prior to measurement the medium of M-1 cells was replaced with Caco-2 transport buffer (Invitrogen, Germany). During measurements, the Ussing chamber temperature was kept at 37° C. Short circuit currents (I_sc) were measured in the voltage-clamp mode with the software package Lab View for data acquisition and analysis. The transepithelial electrical resistance (TEER) was determined by the application of voltage steps of ±5 mV every 5 sec. Compounds were administered at a final concentration of 3 μM or at increasing concentrations (1-3-10 μM) to the apical solution. At the end of each experiment the amiloride sensitive I_SC was measured by adding 3 μM amiloride to the apical compartment. Results are expressed as inhibition in percent of the amiloride effect or as IC50. With the example compounds given above, the following IC50 values were determined in the Ussing Chamber assay: […]

SMILES	IC50
CCn1c(CNC(=O)c2nc(Cl)cnc2N)[n+](CC)c2ccc(C(=O)NCCCNC)cc21 [Example 1.04]	3 nM
CCn1c(CNC(=O)c2nc(Cl)cnc2N)[n+](CC)c2ccc(C(=O)N(C)CCCN(C)C)cc21 [Example 1.17]	7 nM
CCn1c(CNC(=O)c2nc(Cl)cnc2N)[n+](CC)c2ccc(C(=O)N3CCC(NC(=O)CN)CC3)cc21 [Example 1.21]	5 nM
CCn1c(CNC(=O)c2nc(Cl)cnc2N)[n+](CC)c2ccc(C(=O)NCCCN)cc21 [Example 1.10]	4 nM
CCn1c(CNC(=O)c2nc(Cl)cnc2N)[n+](CC)c2ccc(C(=O)NCCN(C)C)cc21 [Example 1.06]	4 nM
CCn1c(CNC(=O)c2nc(Cl)cnc2N)[n+](CC)c2ccc(C(=O)N(CCN)CCN)cc21 [Example 1.13]	7 nM
CCn1c(CNC(=O)c2nc(Cl)cnc2N)[n+](CC)c2ccc(C(=O)N3CCN(C)CC3)cc21 [Example 1.07]	5 nM
CCn1c(CNC(=O)c2nc(Cl)cnc2N)[n+](CC)c2ccc(C(=O)N3CCNCC3)cc21 [Example 1.01]	7 nM
CCn1c(CNC(=O)c2nc(Cl)cnc2N)[n+](CC)c2ccc(C(=O)N3CCCNCC3)cc21 [Example 1.19]	4 nM
CCn1c(CNC(=O)c2nc(Cl)cnc2N)[n+](CC)c2ccc(C(=O)N(C)CCNC)cc21 [Example 1.14]	4 nM
CCCCN1CCN(C(=O)c2ccc3c(c2)[n+](CC)c(CNC(=O)c2nc(Cl)cnc2N)n3CC)CC1 [Example 1.18]	5 nM
CCn1c(CNC(=O)c2nc(Cl)cnc2N)[n+](CC)c2cc(C(=O)N3CCN(CP(C)(C)=O)CC3)ccc21 [Example 1.16]	12 nM
CCn1c(CNC(=O)c2nc(Cl)cnc2N)[n+](CC)c2cc(C(=O)NCCOCP(C)(C)=O)ccc21 [Example 1.22]	13 nM
CCn1c(CNC(=O)c2nc(Cl)cnc2N)[n+](CC)c2ccc(C(=O)N(CCN)CC(C)C)cc21 [Example 1.05]	8 nM
CCn1c(CNC(=O)c2nc(Cl)cnc2N)[n+](CC)c2ccc(C(=O)N(C)CCN3CCOCC3)cc21 [Example 1.15]	6 nM
CCn1c(CNC(=O)c2nc(Cl)cnc2N)[n+](CC)c2ccc(C(=O)N(C)CCCNC)cc21 [Example 1.02]	4 nM
CCn1c(CNC(=O)c2nc(Cl)cnc2N)[n+](CC)c2ccc(C(=O)NCCN3CCOCC3)cc21 [Example 1.03]	7 nM
CCn1c(CNC(=O)c2nc(Cl)cnc2N)[n+](CC)c2ccc(C(=O)NC[C@H](O)[C@@H](O)[C@H](O)[C@H](O)CO)cc21 [Example 1.09]	6 nM
CCn1c(CNC(=O)c2nc(Cl)cnc2N)[n+](CC)c2ccc(C(=O)NCCNC)cc21 [Example 1.08]	6 nM
CCn1c(CNC(=O)c2nc(Cl)cnc2N)[n+](CC)c2cc(C(=O)N3CCC(N(C)C)CC3)ccc21 [Example 1.12]	4 nM
CCn1c(CNC(=O)c2nc(Cl)cnc2N)[n+](CC)c2ccc(C(=O)N(C)CCN(C)C)cc21 [Example 1.20]	6 nM
CCn1c(CNC(=O)c2nc(Cl)cnc2N)[n+](CC)c2ccc(C(=O)N3CCC(NC(=O)CN(C)C)CC3)cc21 [Example 1.11]	5 nM
